The text below walks through data of ChEMBL document CHEMBL2150865, “Remarkable potential of the α-aminophosphonate/phosphinate structural motif in medicinal chemistry” (J Med Chem, 2011).

A word on the AUC: it is concentration integrated over time. For orientation: Tmax means the time from dosing to the highest level. Broadly, the Cmax is the maximum level reached in the sampled fluid or tissue. As a reminder, the Ki is a measure of affinity in units of concentration, obtained from inhibition or displacement. As usually defined, the IC50 is the point on the concentration scale where inhibition reaches its midpoint. As usually defined, the clearance is the volume of plasma or blood freed of the substance per unit of time.

Some results are limits rather than exact numbers.

Series [1] deals with Rattus norvegicus. The series is described as follows: AUC in Sprague-Dawley rat at 20 mg/kg, sc administered as single dose. It counts as ADME, organism-based, Plasma. The following applies: in vivo. More on the design: dose 20 mg/kg, route subcutaneous.
Series [2] is described as follows: Half life in Sprague-Dawley rat at 20 mg/kg, sc administered as single dose. It counts as ADME, organism-based. More on the design: dose 20 mg/kg, route subcutaneous. The following applies: in vivo.
Series [3] in a line: Half life in human at 200 mg, im. It counts as ADME, organism-based. The following applies: in vivo.
Series [4] is described as follows: Tmax in Sprague-Dawley rat at 20 mg/kg, sc administered as single dose. Type of series: ADME, organism-based. The following applies: in vivo. The arrangement: dose 20 mg/kg, route subcutaneous.
The subject of series [5] is Homo sapiens. Description: Reduction in diastolic blood pressure in hypertensive patient receiving 10 to 40 mg/day, po dosed as single or multiple dose. Type of series: functional, Artery. The arrangement: scale not given: the % may be the effect or the level left.
The nature of series [6]: Drug absorption in healthy human at 10 mg dosed as single daily dose. It counts as ADME, organism-based. The following applies: in vivo, read-out: Drug absorption.
Series [7] relates to Homo sapiens. Description: Reduction in systolic blood pressure in hypertensive patient receiving 10 to 40 mg/day, po dosed as single or multiple dose. More on the design: scale not given: the % may be the effect or the level left. It counts as functional, Artery.
In series [8] the test system is Homo sapiens. Description: Reduction in arterial blood pressure in hypertensive patient receiving 10 to 40 mg/day, po dosed as single or multiple dose. It counts as functional. More on the design: scale not given: the % may be the effect or the level left.
Series [9] is described as follows: AUC in healthy human at 10 mg dosed as single daily dose. Type of series: ADME, organism-based. The following applies: plasma.
Series [10] is described as follows: Cmax in healthy human at 10 mg dosed as single daily dose. It counts as ADME, organism-based. More on the design: dose 10 mg. The following applies: in vivo.
Series [11] is described as follows: Tmax in healthy human at 10 mg dosed as single daily dose. Type of series: ADME, organism-based. The following applies: in vivo.
The target in series [12] is T1, Angiotensin-converting enzyme (Homo sapiens, UniProt P12821). Description: Inhibition of human ACE C-terminal domain expressed in CHO cells after 90 mins by fluorescence assay. Type of series: cell-based.
For series [13], the target named is T1, Angiotensin-converting enzyme. Description: Inhibition of human ACE N-terminal domain expressed in CHO cells after 90 mins by fluorescence assay. It counts as cell-based.
Series [14] in a line: Inhibition of Bacillus pasteurii urease. The arrangement: species or system Sporosarcina pasteurii.
Series [15] is described as follows: Inhibition of urease in intact Proteus mirabilis.
Series [16] can be described thus: Terminal half life in healthy human at 10 mg dosed as single daily dose. It counts as ADME, organism-based. The following applies: in vivo, read-out: beta t1/2 (converted).
In series [17] the target is T1, Angiotensin-converting enzyme. The series is described as follows: Inhibition of ACE.
A short description of series [18]: Total body clearance in healthy human at 10 mg dosed as single daily dose. It counts as ADME, organism-based. The following applies: in vivo.
Series [19] in a line: Half life in pH 7.8 buffer. Type of series: physicochemical.
The target of another series is Cytosol aminopeptidase (Homo sapiens, UniProt P28838). Description: Inhibition of LAP.
A further series has as its target Aminopeptidase N (Homo sapiens, UniProt P15144). Description: Inhibition of APN.
A further series addresses Collagenase 3 (Homo sapiens, UniProt P45452). The series is described as follows: Inhibition of MMP-13.
Series [20] deals with Matrix metalloproteinase-14 (Homo sapiens, UniProt P50281). The series is described as follows: Inhibition of MMP-14.
The species named for series [21] is Rattus norvegicus. The series is described as follows: Inhibition of bone resorption in rat. The following applies: read-out: MED. Type of series: functional.
Series [22] can be described thus: Inhibition of ECE.
Series [23] can be described thus: Inhibition of bacterial APN. The arrangement: species or system Bacteria.
The test system of series [24] is Rattus norvegicus. The series is described as follows: Suppression of acute pulmonary transplant rejection in rat at 100 mg/kg at 100 mg/kg followed by 60 mg/kg/day until day 4 after surgery measured on day 5 post initial dose. Type of series: functional.
Series [25] has as its system Rattus norvegicus. Description: Suppression of acute pulmonary transplant rejection in rat at 100 mg/kg. It counts as functional.
A further series concerns Oryctolagus cuniculus. The series is described as follows: Inhibition of DPP4 activity in rabbit plasma at 1 to 10 mg, iv. Type of series: functional.
In the next series the test system is MDA-MB-231. The series is described as follows: Growth inhibition of human MDA-MB-231 cells. It counts as functional, cell-based.
The target in series [26] is T2, Farnesyl pyrophosphate synthase (Homo sapiens, UniProt P14324).
T2 sequence (P14324 whole entry): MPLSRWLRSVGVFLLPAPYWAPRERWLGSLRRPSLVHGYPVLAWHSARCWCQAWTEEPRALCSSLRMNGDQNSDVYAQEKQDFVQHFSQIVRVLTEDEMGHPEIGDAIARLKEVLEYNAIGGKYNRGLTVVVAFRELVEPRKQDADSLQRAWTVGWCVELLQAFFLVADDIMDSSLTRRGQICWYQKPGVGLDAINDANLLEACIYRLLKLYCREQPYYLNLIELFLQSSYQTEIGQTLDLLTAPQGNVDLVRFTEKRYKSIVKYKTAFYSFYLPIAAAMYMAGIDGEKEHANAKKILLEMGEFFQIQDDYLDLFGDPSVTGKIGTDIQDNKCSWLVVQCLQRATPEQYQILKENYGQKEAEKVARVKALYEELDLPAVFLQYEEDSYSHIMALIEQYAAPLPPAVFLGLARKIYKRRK

T1 sequence (P12821 whole entry, the tested form may be a part): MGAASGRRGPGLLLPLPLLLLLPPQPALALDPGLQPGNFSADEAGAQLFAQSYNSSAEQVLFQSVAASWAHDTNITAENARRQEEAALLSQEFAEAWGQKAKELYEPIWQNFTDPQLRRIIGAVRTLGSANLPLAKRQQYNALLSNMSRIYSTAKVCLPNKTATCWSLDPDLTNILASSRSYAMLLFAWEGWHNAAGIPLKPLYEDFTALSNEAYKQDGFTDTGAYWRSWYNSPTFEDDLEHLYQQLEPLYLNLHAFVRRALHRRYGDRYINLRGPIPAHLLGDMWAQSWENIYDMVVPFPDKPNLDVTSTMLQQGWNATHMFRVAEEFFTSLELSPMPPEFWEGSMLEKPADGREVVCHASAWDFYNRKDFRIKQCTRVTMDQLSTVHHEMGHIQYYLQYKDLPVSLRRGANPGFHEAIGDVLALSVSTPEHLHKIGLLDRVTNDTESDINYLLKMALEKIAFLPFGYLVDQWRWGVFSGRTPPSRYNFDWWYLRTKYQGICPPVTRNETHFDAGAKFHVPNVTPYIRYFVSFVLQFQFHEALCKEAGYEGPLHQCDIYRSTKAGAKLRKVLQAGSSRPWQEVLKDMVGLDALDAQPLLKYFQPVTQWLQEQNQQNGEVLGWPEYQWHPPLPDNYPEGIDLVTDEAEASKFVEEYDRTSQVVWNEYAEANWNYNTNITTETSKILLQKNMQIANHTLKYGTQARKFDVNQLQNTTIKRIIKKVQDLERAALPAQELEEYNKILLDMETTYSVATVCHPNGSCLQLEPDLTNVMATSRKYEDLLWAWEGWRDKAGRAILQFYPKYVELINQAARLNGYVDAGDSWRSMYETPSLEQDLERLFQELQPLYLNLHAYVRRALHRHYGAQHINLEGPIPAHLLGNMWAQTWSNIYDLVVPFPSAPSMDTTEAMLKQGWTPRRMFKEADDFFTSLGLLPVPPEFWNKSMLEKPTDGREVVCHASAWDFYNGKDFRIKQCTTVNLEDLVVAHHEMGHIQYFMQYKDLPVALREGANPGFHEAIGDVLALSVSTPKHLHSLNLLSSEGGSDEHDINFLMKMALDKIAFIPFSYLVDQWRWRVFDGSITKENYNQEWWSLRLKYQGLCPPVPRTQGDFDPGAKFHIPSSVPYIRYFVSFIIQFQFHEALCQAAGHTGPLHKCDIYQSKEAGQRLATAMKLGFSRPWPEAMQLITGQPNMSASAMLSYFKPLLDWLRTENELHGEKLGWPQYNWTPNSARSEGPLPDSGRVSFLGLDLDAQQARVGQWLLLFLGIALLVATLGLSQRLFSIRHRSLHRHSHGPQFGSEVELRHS
Chain of Cytosol aminopeptidase (P28838 whole entry): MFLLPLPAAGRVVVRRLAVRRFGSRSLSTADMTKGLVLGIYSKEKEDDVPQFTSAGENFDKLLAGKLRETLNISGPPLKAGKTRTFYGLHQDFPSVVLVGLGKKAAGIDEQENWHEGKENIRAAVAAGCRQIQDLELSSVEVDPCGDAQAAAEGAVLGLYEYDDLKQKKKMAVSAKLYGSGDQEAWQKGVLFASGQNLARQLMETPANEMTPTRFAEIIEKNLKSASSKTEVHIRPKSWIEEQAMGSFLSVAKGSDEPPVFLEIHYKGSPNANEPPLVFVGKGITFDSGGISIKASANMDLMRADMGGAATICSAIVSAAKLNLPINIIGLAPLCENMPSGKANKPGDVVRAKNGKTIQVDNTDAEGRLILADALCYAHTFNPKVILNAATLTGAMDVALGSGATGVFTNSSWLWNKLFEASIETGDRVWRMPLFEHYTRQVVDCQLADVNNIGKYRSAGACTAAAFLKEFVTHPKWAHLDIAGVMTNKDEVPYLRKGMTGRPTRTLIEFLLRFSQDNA
Chain of Aminopeptidase N (P15144 whole entry): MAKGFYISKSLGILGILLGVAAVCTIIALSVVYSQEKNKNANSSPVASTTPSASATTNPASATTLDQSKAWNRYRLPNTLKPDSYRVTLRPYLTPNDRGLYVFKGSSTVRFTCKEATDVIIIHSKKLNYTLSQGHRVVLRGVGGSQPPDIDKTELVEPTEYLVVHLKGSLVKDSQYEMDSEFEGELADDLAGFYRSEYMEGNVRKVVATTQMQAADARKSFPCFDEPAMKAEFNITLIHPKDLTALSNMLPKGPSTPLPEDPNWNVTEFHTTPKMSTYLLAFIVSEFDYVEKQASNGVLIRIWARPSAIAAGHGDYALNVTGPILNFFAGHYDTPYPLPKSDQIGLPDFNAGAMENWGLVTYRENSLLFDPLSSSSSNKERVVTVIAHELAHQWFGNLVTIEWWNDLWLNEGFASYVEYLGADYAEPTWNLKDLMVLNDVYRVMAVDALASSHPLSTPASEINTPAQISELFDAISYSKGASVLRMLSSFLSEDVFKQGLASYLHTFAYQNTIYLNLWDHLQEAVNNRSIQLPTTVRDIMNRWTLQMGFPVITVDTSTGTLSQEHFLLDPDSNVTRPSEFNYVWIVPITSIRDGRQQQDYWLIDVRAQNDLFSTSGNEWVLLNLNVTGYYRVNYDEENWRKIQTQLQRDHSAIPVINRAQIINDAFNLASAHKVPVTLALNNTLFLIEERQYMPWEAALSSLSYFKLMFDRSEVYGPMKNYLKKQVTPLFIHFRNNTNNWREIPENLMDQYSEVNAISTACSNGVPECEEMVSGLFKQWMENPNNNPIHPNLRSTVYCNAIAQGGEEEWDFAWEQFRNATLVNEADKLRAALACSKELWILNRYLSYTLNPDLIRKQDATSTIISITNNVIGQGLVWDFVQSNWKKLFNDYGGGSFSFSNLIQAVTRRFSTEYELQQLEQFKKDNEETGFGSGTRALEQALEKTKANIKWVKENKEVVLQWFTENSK

For `C[C@H](N)C(=O)N[C@@H](C)P(=O)(O)O` [ALAFOSFALIN], the exposure (AUC) with Rattus norvegicus [1] stood at 25000 ng·h/mL. Also, the half-life in series [2] was 0.333 h; in series [3] it was 1 h. The Tmax in series [4] was 0.333 h. As for `CCC(=O)O[C@@H](O[P@](=O)(CCCCc1ccccc1)CC(=O)N1C[C@H](C2CCCCC2)C[C@H]1C(=O)O)C(C)C` [FOSINOPRIL], the Activity in the series on Homo sapiens [5], with Homo sapiens [7] and with Homo sapiens [8] was 10% throughout. The Fa in series [6] amounted to 30%. Moreover, in series [9], the area under the curve (AUC) was 1000 ng·h/mL. In [10], this compound gave a Cmax of 100 ng/mL. For the same compound, the Tmax in series [11] is 3 h. As for `O=C(N[C@@H](Cc1ccccc1)P(=O)(O)C1CCC[C@H]1C(=O)N[C@@H](Cc1c[nH]c2ccccc12)C(=O)O)OCc1ccccc1` (stereo not given in full), the Ki in series [12] is 3 nM; in [13] it was 10000 nM. `CNCP(C)(=O)O` [METHYL((METHYLAMINO)METHYL)PHOSPHINIC ACID]: in [14], the inhibition constant (Ki) amounted to 18000 nM. This compound also yielded an IC50 in series [15] of 36000 nM.

As for `O=C(O)[C@@H]1C[C@@H](C2CCCCC2)CN1C(=O)CP(=O)(O)CCCCc1ccccc1` [FOSINOPRILAT], in series [16], the half-life was 12 h. The same compound showed a Ki in series [17] of 1.5 nM. Moreover, in series [18], the clearance is 25.8 mL/min.

The compound `NCP(=O)(O)CO` [AMINOMETHYL(HYDROXYMETHYL)PHOSPHINIC ACID] had a Ki in series [14] of 95000 nM. Regarding `C[C@H](N)C(=O)N1CCCC1P(=O)(Oc1ccc(Cl)cc1)Oc1ccc(Cl)cc1` (stereo not given in full), the half-life in series [19] was > 48 h. As for `CC(C)CC(CP(=O)(O)[C@@H](N)CC(C)C)C(=O)O` (mixture of isomers), the Ki at Cytosol aminopeptidase was found to be 65 nM; on Aminopeptidase N, 1020 nM. In the case of `NC(=O)[C@H](Cc1c[nH]c2ccccc12)NC(=O)[C@@H](CP(=O)(O)[C@H](Cc1ccccc1)NC(=O)OCc1ccccc1)c1cc(-c2cccc(Oc3ccccc3)c2)no1`, the Ki at Collagenase 3 came out at 28 nM; in series [20] it was 5100 nM.

Take `NCCC(O)(P(=O)(O)O)P(=O)(O)O` [PAMIDRONIC ACID]: the minimal effective dose in the series filed under Rattus norvegicus [21] was 30 µg/kg. Consider `O=C(N[C@@H](CCc1ccccc1)CP(=O)(O)CC(=O)N1CCC[C@H]1C(=O)O)c1ccccc1`, for which the IC50 in series [17] is 12 nM. Consider `CC(=O)N[C@@H](CC(=O)O)C(=O)N[C@@H](Cc1ccccc1)P(=O)(O)C[C@@H](C)C(=O)N[C@@H](C)C(N)=O`, for which the figures for the Ki in [12] and in series [13] were 7500 nM and 7 nM, respectively. With `CCOC(=O)CNC(=O)c1ccc(OP(=O)(Oc2ccc(C(=O)NCC(=O)OCC)cc2)C2CCCN2C(=O)[C@@H]2CCCN2)cc1` (stereo not given in full), the half-life in series [19] turned out to be 0.583 h. In series [22], `O=C(N[C@@H](Cc1ccccc1)P(=O)(O)C[C@H](Cc1cc(-c2ccccc2)no1)C(=O)N[C@@H](Cc1ccc(O)cc1)C(=O)O)OCc1ccccc1` yielded a Ki of 14 nM.

Turning to `NCCCC(O)(P(=O)(O)O)P(=O)(O)O` [ALENDRONIC ACID], in the series filed under Rattus norvegicus [21], the minimal effective dose was found to be 1 µg/kg. The compound `C[C@H](N)P(=O)(O)C[C@@H](Cc1ccccc1)C(=O)N[C@@H](Cc1ccccc1)C(=O)O` showed a Ki in series [23] of 1.5 nM. In [14], `CNCP(=O)(O)CO` [HYDROXYMETHYL((METHYLAMINO)METHYL)PHOSPHINIC ACID] had a Ki of 430 nM. In the case of `CP(=O)(O)CN` [AMINOMETHYL(METHYL)PHOSPHINIC ACID], affinity in [14] was put at a Ki of 340000 nM.

`CC(=O)NO` [ACETOHYDROXAMIC ACID] had an IC50 in [15] of 64400 nM.

Take `O=P(O)(O)C(O)(Cc1cccnc1)P(=O)(O)O` [RISEDRONIC ACID]: the minimal effective dose in the series listed under Rattus norvegicus [21] worked out at 0.3 µg/kg. Take `CC(=O)Nc1ccc(OP(=O)(Oc2ccc(NC(C)=O)cc2)C2CCCN2C(=O)[C@@H]2CCCN2)cc1` (stereo not given in full): the results for the Activity in the series with Rattus norvegicus [24] and in the series with Rattus norvegicus [25] were >90% and >95%, respectively. Also, the half-life in series [19] is 5.33 h. For the compound `O=C([C@@H]1CCCN1)N1CCCC1P(=O)(Oc1ccccc1)Oc1ccccc1` (stereo not given in full), the “inhibition (INH)” value in the series with Oryctolagus cuniculus was 80%. Consider `CN(C)CP(=O)(O)CO` [(DIMETHYLAMINO)METHYL(HYDROXYMETHYL)PHOSPHINIC ACID], for which the Ki in series [14] worked out at 5000 nM. For `CN(C)CP(C)(=O)O` [(DIMETHYLAMINO)METHYL(METHYL)PHOSPHINIC ACID], the Ki in [14] is 620 nM. Compound `CP(O)(=S)CNC(=O)CNC(=O)OCc1ccccc1` (stereo not given) showed an inhibitory constant (Ki) in [14] of 170 nM. Consider `CC(C)CC(N)P(=O)(O)O[C@@H](CC(C)C)C(=O)O` (stereo not given in full), for which, on Cytosol aminopeptidase, the Ki came to 58000 nM. As to `CCCCCCCCCCOc1ccc[n+](CC(P(=O)([O-])O)P(=O)(O)O)c1` (stereo not given), 100 nM corresponded to half-maximal inhibition with MDA-MB-231 (IC50). The compound `O=P(O)(O)C(NC1CCCCCC1)P(=O)(O)O` [INCADRONIC ACID] showed an IC50 in series [26] of 30 nM. Moreover, the minimal effective dose in the series listed under Rattus norvegicus [21] amounted to 1 µg/kg.

With `C[C@H](N)C(=O)N1CCCCC1P(=O)(Oc1ccc(Cl)cc1)Oc1ccc(Cl)cc1` (stereo not given in full), the half-life in series [19] was > 48 h. Compound `CP(=O)(O)CNC(=O)CN` showed a Ki in series [14] of 21000 nM.

Regarding `O.O=P(O)(O)C(O)(Cn1ccnc1)P(=O)(O)O` [ZOLEDRONIC ACID], the minimal effective dose in the series filed under Rattus norvegicus [21] is 0.1 µg/kg.
